Measured values taken from US20160082082A1, “USE OF THERAPEUTIC PEPTIDES FOR THE TREATMENT AND PREVENTION OF CANCER” (ARIZONA CANCER THERAPEUTICS L.L.C., priority 2008, published 2016).
“And” between values parts separate entries of the source, which are not always exact repeats. Equal entries are not always repeated. Where no end group is shown, it is not given here.

What was measured:
[1] = system: MDA-MB-231 breast cancer cells implanted into the mammary fat pad of scid mice; test: Human breast tumor xenograft in mammary fat pad; type: in vivo
Description: FIGS. 3A-3E. […] FIG. 3A) MDA-MB-231 cells in Matrigel were injected into the mammary fat pad of scid mice, and daily peptide treatment (50 μg/g body weight of hPMIP or PTD4) began when tumors reached 100 mm^3 (PTD4 and hPMIP n=8) and primary tumor growth was assessed (*, p=0.028). FIG. 3B) After the end of treatment, the amount of time the tumors took to progress to 1000 mm^3 was measured (ANOVA, **, p=0.03). […] FIG. 3D) MDA-MB-231 cells in Matrigel were injected into the mammary fat pad of scid mice, and daily peptide treatment (50 μg/g of hPMIP or PTD4) began when tumors reached 500 mm^3 (PTD4 n=4 and hPMIP n=6) and primary tumor growth was assessed. FIG. 3E) Following 21 days of treatment the tumors were resected immediately and tumor regrowth at the primary site and spread to secondary mammary glands was monitored (PTD4 n=4 and hPMIP n=4). Error bars represent standard error.
Immunocompromised (severe combined immune deficiency (scid)) mice (Taconic, Rockville, Md.) were tested for the presence of serum IgG and found to be <20 μg/ml IgG. Female mice (four to six weeks old) were injected with 1×10^7 cells embedded in Matri-gel (BD Biosciences) into the mammary fat pad and allowed to grow to either 100 mm^3 or 500 mm^3, based on the formula a^2×b/2 where a is the smaller diameter and b is the larger diameter. Mice were injected i.p. with 50 μg/g body weight of either PMIP or PTD4 control peptide for 21 days and measured with calipers every two days. Either at the end of 21 days, or after the tumor had reached 800 mm^3, tumors were resected by injecting the mice with buprenorphine (2.5 mg/kg body weight, Infusion Solutions, Totowa, N.J.) at least one hour prior to resection and anesthetizing the mice with isoflurane (Abbott, Abbott Park, Ill.). Following surgery, mice were treated with buprenorphine (2.5 mg/kg body weight) 8 and 16 hrs post-surgery. Animals were then followed for 10 days to examine regrowth at the primary tumor site or at secondary mammary glands, then sacrificed.

[2] = system: MMTV-pyV mT induced mammary gland tumors; test: MMTV-pyV mT transgenic mouse spontaneous breast cancer; type: in vivo, mice
Description: FIGS. 4A-4D. […] FIG. 4A) MMTV-pyV mT transgenic mice were injected with FITC-msPMIP (50 μg/g body weight), sacrificed four hours later and various tissues visualized using fluorescence microscopy. FITC-msPMIP localization in the mouse mammary gland tumors is shown (2.5× and 8×). FIG. 4B) Mammary gland tumors (>0.5 cm in diameter) were allowed to develop and mice were injected daily (50 μg/g body weight, 21 day treatment, intraperitoneal (i.p.) injection, 1× per day) with either msPMIP (7 mice) or PTD4 (6 mice). At the end of treatment, animals were sacrificed and proteins lysates made of the tumors for later analysis. […] Numbers above data are number of tumors that meet the size criteria over the total potential tumor sites.
MMTV-pyV mT mice (33), obtained from Jackson Laboratories) entered into study upon the development of tumors that measured ≧0.5 cm in at least one diameter. Only mice greater than seven weeks of age were included in the study and mice that developed fluid cysts were excluded. Animals were injected i.p. with 50 μg/g body weight of msPMIP or PTD4 once daily for 21 days. Each of ten mammary glands were measured using calipers every two days, and measurements were used to determine tumor volume based on the formula a^2×b/2, with a being the smaller diameter and b being the larger diameter. After treatment for 21 days, mice were sacrificed by CO2 inhalation and tissues resected. Several msPMIP treated mice were injected with FITC-msPMIP (50 μg/g body weight) one or four hours prior to sacrifice and intact tissues were visualized using a fluorescence MZFLIII Leica dissection microscope.

[3] = system: BT-20 breast cancer cells; test: Cellular uptake of labelled peptide (fluorescence microscopy); type: cell-based, human; settings: cells pulsed in vitro
Description: FIGS. 1A-1F. […] FIG. 1A) Human MUC1's cytoplasmic amino acid sequence (MUC1CT; SEQ ID NO: 15), which includes an EGFR/src phosphorylation site (underline; SEQ ID NO: 15, residues 46-49) and β-catenin binding site (double underline; SEQ ID NO: 15, residues 50-59). […] The cells were treated with EGF (30′ EGF, 10 ng/ml) or without (-S, no serum) and protein lysates were generated and separated on an SDS-PAGE. The lysates were immunoblotted (IB) for EGFR (1005) and β-actin (AC-15) FIG. 1D-F MDA-MB-468 cells were treated with EGF (10 ng/ml) and either (FIG. 1D) hPMIP (10 μM), (FIG. 1E) PTD4 (10 μM) or (FIG. 1F) PBS overnight. The cells were fixed, probed for MUC1 (Texas Red) and β-catenin (FITC) and examined on a confocal microscope (400×). Co-localization (arrows) analysis was performed using Image Pro Plus and is designated with white pixels.
BT20 cells were treated for 2 hours with 200 μM hPMIP tagged with FITC and fixed in 4% Paraformaldhyde/PBS. Fixed cells were washed 3 times with 0.02% NaN3/PBS and incubated with Slowfade Gold antifade reagent with DAPI (Invitrogen). Cells were visualized with a fluorescence DMLB Leica compound microscope. […]

[4] = system: MDA-MB-231 cells; test: Invasion assay (Transwell into Type I collagen); type: cell-based, human; settings: MDA-MB-231, 50 μM, vs PTD4 or PBS
Description: FIGS. 2A-2C. […] FIG. 2A) BT20 cells were cultured in a 96-well dish (10^4 cells/well) and treated daily for 6 days with either hPMIP (10 μM) or PTD4 (10 μM) in RPMI 1640/1% FBS. An MTT assay was performed to quantify cell number after treatment was complete (***, p<0.0001). Error bars represent standard error. FIG. 2B) MDA-MB-231 and FIG. 2C) BT20 cell lines were treated with either hPMIP (50 μM), PTD4 (50 μM), or PBS overnight, labeled with Calcein AM, allowed to invade through a Transwell (8.0 μM) insert into a Type I collagen gel, and the invaded cells were fluorescently measured. (ANOVA, *p<0.0001, **p<0.0001, #p=0.007, ##p=0.007). Error bars represent standard deviation.
Collagen matrix (0.9 mg/ml Type I Rat tail collagen (BD Biosciences, Billerica, Mass.), 83.0% (v/v) M-199 medium (Life Technologies), and 0.18% NaHCO3 (Fisher, Hampton, N.H.)) was poured into a 24 well plate. Prior to collagen polymerization a […] pore transwell insert (Corning Inc., Corning, N.Y.) was placed on top of the matrix. The polymerized collagen was rehydrated using a chemoattractant (20% FBS/RPMI 1640 with […] EGF). MDA-MB-231 cells were treated with 50 μM of peptide in serum free RPMI 1640 media for 17 hours. […] The number of fluorescently labeled cells that had invaded into the collagen were measured using a Molecular Devices spectrophotometer (Ex:485, Em:538, and Cutoff:530).

[5] = system: human breast cancer cell line MDA-MB-231; test: Annexin V and cell number quantification on plastic; type: cell-based; settings: MDA-MB-231 grown on plastic
Text: These cells were chosen as they represent models of high and low MUC1 expression, respectively (data not shown).

[6] = system: MMTV-pyV mT induced mammary gland tumors; test: MMTV-pyV mT transgenic mouse spontaneous breast cancer; type: in vivo; settings: human peptide in MMTV-pyV mT mice

In the case of “PTD4: PTD4 protein transduction domain, SEQ ID NO: 16, used as control peptide (YARAAARQARA; synthetic protein translocation domain)”, the “average tumor volume of regrowth / secondary mammary gland tumors after resection” value ([1]; treatment begun at 500 mm^3, 50 μg/g i.p. 21 days, resection, 10 days follow-up without drug) was 760 mm^3, the “number of tumors sized 100-300 mm^3, end vs beginning of treatment” value ([2]; 50 μg/g i.p. daily, 21 days) was “doubled” and the tumor growth rate ([2]; 50 μg/g i.p. daily, 21 days) was 69 mm^3/day. The “tumors larger than 100 mm^3 (of possible tumor sites)” value ([2]; 50 μg/g i.p. daily, 21 days) was 47%, the “tumors that grew larger than 500 mm^3 by the end of the study” value ([2]; 50 μg/g i.p. daily, 21 days) was 13% and the “total tumor growth for all tumor sites” value ([2]; 50 μg/g i.p. once daily, over 21 days of treatment) was 589.5%±283.6% and ~590%. For the same substance, the “number of established tumors that completely regressed” value ([2]; 21 day treatment, PTD4 n=60, PMIP n=70 tumor sites) was “none”.
In the case of “FITC-hPMIP: FITC-labeled PTD4 conjugated to MIP peptides (human) (YARAAARQARAPYEKVSAGNGGSSLS; not fully specified (N-terminus); also: FITC label, place not given here)”, the “presence and retention of fluorescent peptide in cells” value [3] was “found to contain the fluorescent peptide and it was retained over time”.
With “hPMIP: human PMIP, SEQ ID NO: 17: MUC1 mimetic 15 amino acid peptide in tandem with PTD4 protein transduction domain (YARAAARQARAPYEKVSAGNGGSSLS; fusion protein)” the “invasion into Type I collagen matrix” value [4] was “strongly inhibited cellular invasion”, the “effect on apoptosis (Annexin V)” value [5] was “no detectable effects” and the “effect on cell growth (cell number)” value [5] was “no detectable effects”. The “primary tumor size vs control” value ([1]; treatment begun at 100 mm^3, 50 μg/g i.p. 21 days, p=0.028) was “significant decrease in tumor size”, the “length of time to reach resection size of 800 mm^3” value ([1]; treatment begun at 100 mm^3, after end of treatment, p=0.03) was “significant increase in the length of time” and the “tumor regrowth and spread 10 days after resection” value ([1]; treatment begun at 100 mm^3, resection at 800 mm^3) was “substantially decreased”. For the same substance, the “number of regrowth and secondary mammary gland tumors” value ([1]; treatment begun at 500 mm^3, after resection) was “found in equal number for both treatment groups” and the “effect on tumor growth” value [6] was “no effect on tumor growth”.
